Assay results: US8252737B2, “Antimicrobial peptides and methods of use” (priority 2004, dated 2012)
≈ marks a conversion by molar mass, not a printed value. Where two headings read alike, the source gives them in different places. Marks after values point to notes of the source that are not given here.

Tests used:
[1] = test system: Staphylococcus epidermidis
[2] = test system: Pseudomonas aeruginosa strains; conditions: for MIC GM: geometric mean of six Pseudomonas aeruginosa clinical isolates; for MIC CP 204: strain CP 204; for MIC M 2: strain M 2; for MIC PA 14: strain PA 14; for MIC PAK: strain PAK; for MIC PAO 1: strain PAO 1; for MIC WR 5: strain WR 5
Procedure: Pseudomonas aeruginosa strains used in this study are a diverse group of clinical isolates from different places in the world. […] The geometric mean MIC values from six Pseudomonas aeruginosa strains were calculated to provide an overall evaluation of antimicrobial activity of these peptides against Pseudomonas aeruginosa. Fold improvement was calculated by comparing the geometric mean MIC value of each peptide to that of the parent peptide V681.
(§1) Measurement of Antimicrobial Activity—Minimal inhibitory concentrations (MICs) were determined using a standard microtiter dilution method in LB (Luria-Bertani) no-salt medium (10 g of tryptone and 5 g of yeast extract per liter). Briefly, cells were grown overnight at 37° C. in LB and diluted in the same medium. […] Plates were incubated at 37° C. for 24 hours and MICs determined as the lowest peptide concentration that inhibited growth. Alternatively, minimal inhibitory concentrations were determined using a standard microtiter dilution method in a Mueller-Hinton (MH) medium. Briefly, cells were grown overnight at 37° C. in MH broth and diluted in the same medium. […] Plates were incubated at 37° C. for 24 hours and MICs determined as the lowest peptide concentration that inhibited growth. However, for MIC determination of Pseudomonas aeruginosa clinical isolates, brain heart infusion (BH1) medium was used instead of MH broth. In addition, the bacteria were diluted to a final inoculum of 1×10^6 colony-forming units/ml.
For the Leu-substituted peptides, the hemolytic activity against human erythrocytes was determined as the maximal peptide concentration that produces no hemolysis after 18 hours of incubation at 37° C. Antimicrobial activity of the peptides was determined on a diverse group of Pseudomonas aeruginosa clinical isolates. […] The geometric mean MIC values from six Pseudomonas strains in Table 14 were calculated to provide an overall evaluation of antimicrobial activity of the peptides with different hydrophobicities.

gram-negative bacteria = experiment: MIC, microtiter dilution, Gram-negative bacteria (geometric mean of 6 strains); type: cell-based; conditions: geometric mean of MIC values from all 6 Gram-negative strains of Table 11
Procedure: (§2) The geometric mean MIC values from 6 microbial strains in this table were calculated to provide an overall evaluation of antimicrobial activity against gram-negative bacteria.
In Table 11, geometric mean MIC was calculated to provide an overall view of antimicrobial activity of the peptides against Gram-negative bacteria and was also used to calculate the therapeutic index.
as §1

human erythrocytes = experiment: Hemolytic activity (MHC), Protocol B, 18 hours; conditions: for Hemolytic activity Fold: fold decrease in hemolytic activity compared to V681, 18 hours; for MHC (μg/ml) hRBC: maximal peptide concentration with no hemolysis after 18 hours
Procedure: In order to evaluate the biological activities of the D-enantiomeric peptides, namely D-NAL and D-NKD, the hemolytic activity of the peptides against human erythrocytes was determined as the maximal peptide concentration that produces no hemolysis after 18 hours of incubation at 37° C.
(§3) Measurement of Hemolytic Activity—Protocol A: Peptide samples were added to 1% human erythrocytes in phosphate buffered saline (0.08M NaCl; 0.043M Na2PO4; 0.011M KH2PO4) and reactions were incubated at 37° C. for 12 hours in microtiter plates. Peptide samples were diluted 2 fold in order to determine the concentration that produced no hemolysis. […] Hemoglobin release was determined spectrophotometrically at 562 nm. The hemolytic titer was the highest 2-fold dilution of the peptide that still caused release of hemoglobin from erythrocytes. The control for no release of hemoglobin was a sample of 1% erythrocytes without any peptide added. […] Peptide samples were diluted 2 fold in order to determine the concentration that produced no hemolysis. […] Hemoglobin release was determined spectrophotometrically at 570 nm. The hemolytic titer was the highest 2-fold dilution of the peptide that still caused release of hemoglobin from erythrocytes. The control for no release of hemoglobin was a sample of 1% erythrocytes without any peptide added.

P. aeruginosa H187 wt = test system: P. aeruginosa H187 wt
Procedure: as §2, §1

[3] = test system: E. coli (UB 1005 wt and DC2 abs); conditions: for MIC (μg/ml) E. coli C500 abs: antibiotic sensitive strain; for MIC (μg/ml) E. coli C498 wt: wild-type lab strain
Procedure: as §2, §1

S. typhimurium C610 abs = test system: S. typhimurium C610 abs
Procedure: as §2, §1

[4] = Procedure: as §2, §1
E. faecalis = test system: E. faecalis
Procedure: as §1

C. albicans = conditions: fungus
Procedure: as §1

gram-positive bacteria = test system: gram-positive bacteria
Procedure: as §1

human red blood cells = experiment: Hemolysis time study (0-8 hours, 8-500 μg/ml)
Procedure: The percent hemolysis of cells was determined spectrophotometrically by comparison with the complete hemolysis of cells in water.
as §3, with “Measurement of Hemolytic Activity—Protocol A: Peptide samples were added to 1% human erythrocytes in phosphate buffered saline (0.08M NaCl; 0.043M Na2PO4; 0.011M KH2PO4) and reactions were incubated at 37° C. for 12 hours in microtiter plates.” left out

[5] = maximal peptide concentration producing no hemolysis after 18 hours, 37° C.
[6] = Pseudomonas aeruginosa antibiotic sensitive strain
[7] = Pseudomonas aeruginosa wild-type lab strain
[8] = Salmonella typhimurium antibiotic sensitive strain
[9] = Salmonella typhimurium wild-type lab strain
[10] = geometric mean of MIC values from all 6 gram-positive strains of Table 12

| SMILES | MIC (μg/ml) B. subtilis C971 wt (Bacillus subtilis) | MIC (μg/ml) S. epidermidis C621 wt [1] | MIC GM [2] | MIC CP 204 [2] | MIC M 2 [2] | MIC PA 14 [2] | MIC PAK [2] | MIC PAO 1 [2] | MIC WR 5 [2] | MIC (μg/ml) GM (gram-negative bacteria) | MIC (μg/ml) S. aureus 622 wt (Staphylococcus aureus) | MIC (μg/ml) S. aureus 623 methR (Staphylococcus aureus) | Hemolytic activity Fold (human erythrocytes) | Hemolytic activity MHC (human erythrocytes; [5]) | MHC (μg/ml) hRBC (human erythrocytes; Table 11) | MHC (μg/ml) hRBC (human erythrocytes; Table 12) | MIC (μg/ml) Pa H188 abs (P. aeruginosa H187 wt; [6]) | MIC (μg/ml) E. coli C500 abs [3] | MIC (μg/ml) E. coli C498 wt [3] | MIC (μg/ml) C. xerosis C875 wt (Corynebacterium xerosis) | also measured |
| --- | --- | --- | --- | --- | --- | --- | --- | --- | --- | --- | --- | --- | --- | --- | --- | --- | --- | --- | --- | --- | --- |
| CC[C@@H](C)[C@@H](NC(=O)[C@@H](C)NC(=O)[C@@H](CCCCN)NC(=O)[C@@H](CC(C)C)NC(=O)[C@@H](C)NC(=O)[C@H](NC(=O)[C@@H](Cc1c[nH]cn1)NC(=O)[C@@H](CC(C)C)NC(=O)[C@H](NC(=O)[C@H](NC(=O)[C@@H](CCCCN)NC(=O)[C@@H](CCCCN)NC(=O)[C@@H](C)NC(=O)[C@@H](CO)NC(=O)[C@@H](CCCCN)NC(=O)[C@@H](Cc1ccccc1)NC(=O)[C@H](NC(=O)[C@@H](CCCCN)NC(=O)[C@@H](CC(C)C)NC(=O)[C@@H](Cc1ccccc1)NC(=O)[C@@H](CO)NC(=O)[C@@H](CCCCN)NC(=O)[C@@H](Cc1c[nH]c2ccccc12)NC(=O)[C@@H](CCCCN)NC(C)=O)[C@H](C)O)[C@H](C)O)C(C)C)[C@H](C)O)C(=O)N[C@H](CO)C(=O)N[C@H](CO)C(N)=O [D-NKD] | 1.6 µg/mL (≈ 0.535 µM) | 3.1 µg/mL (≈ 1.04 µM) | 31.2 µg/mL (≈ 10.4 µM) | 15.6 µg/mL (≈ 5.22 µM) | 31.3 µg/mL (≈ 10.5 µM) | 15.6 µg/mL (≈ 5.22 µM) | 125.0 µg/mL (≈ 41.8 µM) | 15.6 µg/mL (≈ 5.22 µM) | 62.5 µg/mL (≈ 20.9 µM) | 3.9 µg/mL (≈ 1.3 µM) | 6.3 µg/mL (≈ 2.11 µM) | 6.3 µg/mL (≈ 2.11 µM) | 32 | 250.0^h μg/ml | 250.0^h μg/ml | 250.0^h μg/ml | 3.1 µg/mL (≈ 1.04 µM) | 3.1 µg/mL (≈ 1.04 µM) | 3.1 µg/mL (≈ 1.04 µM) | 1.6 µg/mL (≈ 0.535 µM) | MIC (μg/ml) Pa H187 wt (P. aeruginosa H187 wt; [7]): 6.3 µg/mL (≈ 2.11 µM); MIC (μg/ml) St C610 abs (S. typhimurium C610 abs; [8]): 3.1 µg/mL (≈ 1.04 µM); MIC (μg/ml) St C587 wt [4, 9]: 6.3 µg/mL (≈ 2.11 µM); MIC (μg/ml) E. faecalis C625 wt (E. faecalis; wild type strain): 12.5 µg/mL (≈ 4.18 µM); MIC (μg/ml) C. albicans (C. albicans): 25.0 µg/mL (≈ 8.36 µM); MIC (μg/ml) GM (gram-positive bacteria; [10]): 4.0 µg/mL (≈ 1.34 µM) |
| CC[C@@H](C)[C@@H](NC(=O)[C@@H](C)NC(=O)[C@@H](CCCCN)NC(=O)[C@@H](CC(C)C)NC(=O)[C@@H](C)NC(=O)[C@H](NC(=O)[C@@H](Cc1c[nH]cn1)NC(=O)[C@@H](CC(C)C)NC(=O)[C@H](NC(=O)[C@H](NC(=O)[C@@H](CCCCN)NC(=O)[C@H](NC(=O)[C@@H](C)NC(=O)[C@@H](CO)NC(=O)[C@@H](CCCCN)NC(=O)[C@@H](Cc1ccccc1)NC(=O)[C@H](NC(=O)[C@@H](CCCCN)NC(=O)[C@@H](CC(C)C)NC(=O)[C@@H](Cc1ccccc1)NC(=O)[C@@H](CO)NC(=O)[C@@H](CCCCN)NC(=O)[C@@H](Cc1c[nH]c2ccccc12)NC(=O)[C@@H](CCCCN)NC(C)=O)[C@H](C)O)C(C)C)[C@H](C)O)C(C)C)[C@H](C)O)C(=O)N[C@H](CO)C(=O)N[C@H](CO)C(N)=O [D-V681] | 1.6 µg/mL (≈ 0.54 µM) | 1.6 µg/mL (≈ 0.54 µM) | – | – | – | – | 31.3 µg/mL (≈ 10.6 µM) | 15.6 µg/mL (≈ 5.27 µM) | – | 6.3 µg/mL (≈ 2.13 µM) | – | – | – | – | 7.8 µg/mL | 7.8 µg/mL | – | 3.1 µg/mL (≈ 1.05 µM) | 6.3 µg/mL (≈ 2.13 µM) | 3.1 µg/mL (≈ 1.05 µM) | MIC (μg/ml) S. aureus 623 methR (Staphylococcus aureus; methicillin-resistant clinical strain): 6.3 µg/mL (≈ 2.13 µM); MIC (μg/ml) S. aureus 622 wt (Staphylococcus aureus; wild type strain): 6.3 µg/mL (≈ 2.13 µM); Hemolytic activity MHC (human erythrocytes; red cells of human, 18 h): 7.8 µg/mL; MIC (μg/ml) Pa H188 abs (P. aeruginosa H187 wt): 6.3 µg/mL (≈ 2.13 µM); MIC (μg/ml) Pa H187 wt (P. aeruginosa H187 wt; H187 wt): 6.3 µg/mL (≈ 2.13 µM); MIC (μg/ml) St C610 abs (S. typhimurium C610 abs; C610 abs): 6.3 µg/mL (≈ 2.13 µM); MIC (μg/ml) St C587 wt ([4]; C610 abs): 12.5 µg/mL (≈ 4.22 µM); MIC (μg/ml) E. faecalis C625 wt (E. faecalis): 6.3 µg/mL (≈ 2.13 µM); MIC (μg/ml) GM (gram-positive bacteria): 3.5 µg/mL (≈ 1.18 µM) |
| CC[C@@H](C)[C@@H](NC(=O)[C@@H](C)NC(=O)[C@@H](CCCCN)NC(=O)[C@@H](CC(C)C)NC(=O)[C@@H](C)NC(=O)[C@H](NC(=O)[C@@H](Cc1c[nH]cn1)NC(=O)[C@@H](CC(C)C)NC(=O)[C@H](NC(=O)[C@H](NC(=O)[C@@H](CCCCN)NC(=O)[C@H](C)NC(=O)[C@@H](C)NC(=O)[C@@H](CO)NC(=O)[C@@H](CCCCN)NC(=O)[C@@H](Cc1ccccc1)NC(=O)[C@H](NC(=O)[C@@H](CCCCN)NC(=O)[C@@H](CC(C)C)NC(=O)[C@@H](Cc1ccccc1)NC(=O)[C@@H](CO)NC(=O)[C@@H](CCCCN)NC(=O)[C@@H](Cc1c[nH]c2ccccc12)NC(=O)[C@@H](CCCCN)NC(C)=O)[C@H](C)O)[C@H](C)O)C(C)C)[C@H](C)O)C(=O)N[C@H](CO)C(=O)N[C@H](CO)C(N)=O [D-NAL] | 1.6 µg/mL (≈ 0.545 µM) | 1.6 µg/mL (≈ 0.545 µM) | 13.9 µg/mL (≈ 4.74 µM) | 7.8 µg/mL (≈ 2.66 µM) | 15.6 µg/mL (≈ 5.32 µM) | 7.8 µg/mL (≈ 2.66 µM) | 31.3 µg/mL (≈ 10.7 µM) | 7.8 µg/mL (≈ 2.66 µM) | 31.3 µg/mL (≈ 10.7 µM) | 3.9 µg/mL (≈ 1.33 µM) | 3.1 µg/mL (≈ 1.06 µM) | 3.1 µg/mL (≈ 1.06 µM) | 4 | 31.3 µg/mL | 31.3 µg/mL | 31.3 µg/mL | 3.1 µg/mL (≈ 1.06 µM) | 3.1 µg/mL (≈ 1.06 µM) | 3.1 µg/mL (≈ 1.06 µM) | 1.6 µg/mL (≈ 0.545 µM) | hemolysis of human red blood cells (human red blood cells; 500 μg/ml, after 1 hour incubation): approximately 40%; hemolysis of human red blood cells (human red blood cells; peptide concentration of 32 μg/ml): negligible hemolysis; MIC (μg/ml) Pa H187 wt (P. aeruginosa H187 wt; [7]): 3.1 µg/mL (≈ 1.06 µM); MIC (μg/ml) St C610 abs (S. typhimurium C610 abs; [8]): 3.1 µg/mL (≈ 1.06 µM); MIC (μg/ml) St C587 wt [4, 9]: 12.5 µg/mL (≈ 4.26 µM); MIC (μg/ml) E. faecalis C625 wt (E. faecalis; wild type strain): 12.5 µg/mL (≈ 4.26 µM); MIC (μg/ml) C. albicans (C. albicans): 12.5 µg/mL (≈ 4.26 µM); MIC (μg/ml) GM (gram-positive bacteria; [10]): 2.8 µg/mL (≈ 0.954 µM) |
